Data from ChEMBL document CHEMBL5331124, “Degradation of Hexokinase 2 Blocks Glycolysis and Induces GSDME-Dependent Pyroptosis to Amplify Immunogenic Cell Death for Breast Cancer Therapy” (J Med Chem, 2023).
Active and inactive are the calls of the source. No cut-off for these calls is given here.

How the values were obtained:
[1] = system: 4T1; assay: Potency index, ratio of IC50 for lonidamine to test compound IC50 for mouse 4T1 cells assessed as cell growth inhibition measured for 72 hrs by MTT assay; format: functional
[2] = system: HGC-27; assay: Potency index, ratio of IC50 for lonidamine to test compound IC50 for human HGC-27 cells assessed as cell growth inhibition measured for 72 hrs by MTT assay; format: functional
[3] = target: T1, Hexokinase-2 (Homo sapiens) (UniProt P52789); assay: (§1) Induction of HK2 degradation in human MDA-MB-231 cells measured for 36 hrs; format: cell-based
T1 sequence (whole entry): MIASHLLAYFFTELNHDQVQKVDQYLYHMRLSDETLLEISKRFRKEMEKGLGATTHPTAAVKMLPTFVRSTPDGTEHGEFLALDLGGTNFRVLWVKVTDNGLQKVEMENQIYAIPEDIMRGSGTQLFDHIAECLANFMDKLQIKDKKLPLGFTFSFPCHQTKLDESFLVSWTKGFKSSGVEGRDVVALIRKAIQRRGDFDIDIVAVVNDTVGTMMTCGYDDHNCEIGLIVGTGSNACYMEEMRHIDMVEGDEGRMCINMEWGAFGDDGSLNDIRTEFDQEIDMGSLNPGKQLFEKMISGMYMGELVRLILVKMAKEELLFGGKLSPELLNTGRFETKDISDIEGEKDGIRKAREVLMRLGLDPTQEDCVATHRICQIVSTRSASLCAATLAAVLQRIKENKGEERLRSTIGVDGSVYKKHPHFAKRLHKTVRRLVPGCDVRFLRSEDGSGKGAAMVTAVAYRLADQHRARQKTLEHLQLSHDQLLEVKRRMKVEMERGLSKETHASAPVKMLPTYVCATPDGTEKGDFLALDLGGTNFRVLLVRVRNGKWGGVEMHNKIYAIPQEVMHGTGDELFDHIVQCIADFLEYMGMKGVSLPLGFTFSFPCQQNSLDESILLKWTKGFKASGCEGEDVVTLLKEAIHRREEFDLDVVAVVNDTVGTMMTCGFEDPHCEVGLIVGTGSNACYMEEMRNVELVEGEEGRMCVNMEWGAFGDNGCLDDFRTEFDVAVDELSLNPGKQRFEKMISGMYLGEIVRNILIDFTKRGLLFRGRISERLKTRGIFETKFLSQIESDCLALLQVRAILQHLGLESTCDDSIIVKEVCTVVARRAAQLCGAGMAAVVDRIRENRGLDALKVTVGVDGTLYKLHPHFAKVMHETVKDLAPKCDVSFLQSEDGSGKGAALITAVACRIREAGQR

[4] = target: T2, Hexokinase-2 (Homo sapiens, UniProt P52789); assay: as §1; format: cell-based
T2 sequence (P52789 whole entry): T1 sequence (whole entry)

[5] = target: T3, Hexokinase-2 (Mus musculus) (UniProt O08528); assay: Induction of HK2 degradation in mouse 4T1 cells measured for 36 hrs by confocal microscopic analysis; format: cell-based; conditions: dose 2.0 µM
T3 sequence (whole entry): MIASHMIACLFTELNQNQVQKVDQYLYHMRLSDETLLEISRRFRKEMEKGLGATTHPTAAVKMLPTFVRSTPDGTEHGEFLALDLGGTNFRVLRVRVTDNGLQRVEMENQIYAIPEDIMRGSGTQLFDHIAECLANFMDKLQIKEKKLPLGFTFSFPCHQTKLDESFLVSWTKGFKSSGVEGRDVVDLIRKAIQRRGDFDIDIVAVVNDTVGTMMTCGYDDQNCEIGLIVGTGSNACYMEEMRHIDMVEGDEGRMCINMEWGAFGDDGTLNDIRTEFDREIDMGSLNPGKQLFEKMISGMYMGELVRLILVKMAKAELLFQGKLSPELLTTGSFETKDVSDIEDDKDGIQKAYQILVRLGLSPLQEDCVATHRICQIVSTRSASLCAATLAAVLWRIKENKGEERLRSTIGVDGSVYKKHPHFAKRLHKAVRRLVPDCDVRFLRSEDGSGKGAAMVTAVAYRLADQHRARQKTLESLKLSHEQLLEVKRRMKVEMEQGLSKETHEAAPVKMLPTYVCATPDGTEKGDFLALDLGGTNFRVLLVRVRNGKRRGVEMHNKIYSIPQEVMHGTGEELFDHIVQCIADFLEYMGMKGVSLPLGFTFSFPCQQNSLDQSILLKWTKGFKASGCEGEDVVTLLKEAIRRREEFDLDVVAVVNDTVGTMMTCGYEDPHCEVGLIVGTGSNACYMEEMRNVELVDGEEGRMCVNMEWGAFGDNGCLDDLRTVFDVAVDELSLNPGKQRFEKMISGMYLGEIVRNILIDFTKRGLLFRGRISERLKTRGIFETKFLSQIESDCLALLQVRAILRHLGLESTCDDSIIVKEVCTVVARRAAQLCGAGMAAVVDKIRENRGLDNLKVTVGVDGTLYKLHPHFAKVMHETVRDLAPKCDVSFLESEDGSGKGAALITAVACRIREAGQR

[6] = system: 4T1; assay: Induction of mitochondrial damage in mouse 4T1 cells assessed as reduction in LDH level at 20 uM measured for 36 hrs; format: functional, cell-based
[7] = target: T1, Hexokinase-2 (Homo sapiens); assay: Induction of HK2 degradation in human MDA-MB-231 cells assessed as decrease in Bcl-2 expression at 20 uM measured for 36 hrs by Western blot analysis; format: cell-based
[8] = system: 4T1; assay: Induction of pyroptosis in mouse 4T1 cells assessed as reduction in full length caspase-3 level at 20 uM incubated for 36 hrs; format: functional, cell-based
[9] = system: 4T1; assay: Induction of pyroptosis in mouse 4T1 cells assessed as increase in N-terminal GSDME level at 20 uM incubated for 36 hrs; format: functional, cell-based
[10] = system: 4T1; assay: Induction of pyroptosis in mouse 4T1 cells assessed as dead cells at 20 uM incubated for 36 hrs by annexin V-FITC staining based flow cytometry analysis (Rvb =17.6 %); format: functional
[11] = system: MDA-MB-231; assay: Induction of pyroptosis in human MDA-MB-231 cells assessed as decrease in full length caspase-3 level at 20 uM incubated for 36 hrs by Western blot analysis; format: functional, cell-based
[12] = system: 4T1; assay: Antitumor immunity against mouse 4T1 cells implanted in BALB/c mouse model assessed as reduction tumor cell proliferation at 50 mg/kg, ip measured after 25 days by Ki67 staining based analysis; format: functional, organism-based; conditions: time 25.0 day
[13] = Toxicity in BALB/c nude mouse xenografted with human MDA-MB-231 cells assessed as effect on hematocrit level at 50 mg/kg, ip measured after 30 days by routine blood test; format: organism-based; conditions: in vivo, 720 h, time 30 day
[14] = Toxicity in BALB/c nude mouse xenografted with human MDA-MB-231 cells assessed as effect on hemoglobin level at 50 mg/kg, ip measured after 30 days by routine blood test; format: organism-based; conditions: in vivo, 720 h, time 30 day
[15] = system: 4T1; assay: Antitumor activity against mouse 4T1 cells implanted in BALB/c mouse assessed as reduction in tumor volume at 50 mg/kg, ip measured after 23 days in presence of cisplatin; format: functional, organism-based; conditions: time 23.0 day
[16] = Toxicity in BALB/c mouse implanted with mouse 4T1 cells assessed as effect on platelet count at 50 mg/kg, ip measured after 25 days in presence of cisplatin by routine blood test; format: organism-based; conditions: in vivo, 600 h, time 25 day
[17] = Toxicity in BALB/c mouse implanted with mouse 4T1 cells assessed as effect on red blood cells at 50 mg/kg, ip measured after 25 days in presence of cisplatin by routine blood test; format: organism-based; conditions: in vivo, 600 h, time 25 day

For `O=C1CCC(N2C(=O)c3cccc(NCCCCNC(=O)c4nn(Cc5ccc(Cl)cc5Cl)c5ccccc45)c3C2=O)C(=O)N1` (configuration not stated), the “Ratio IC50” value [1] was 30.1, the “Ratio IC50” value [2] was 12.7 and the Activity [3] was “Dose-Dependent Effect”. For the same compound, the DC50 [4] was 790 nM, the Activity [5] was “Dose-Dependent Effect” and the Activity [6] was “Active”. The Activity [7] was “Active”, the Activity [8] was “Active” and the Activity [9] was “Active”. The Activity [10] was 9.44%, the Activity [11] was “Active” and the Activity [12] was “Active”. For the same compound, the Activity [13] was “Non-Toxic”, the Activity [14] was “Non-Toxic” and the Activity [15] was “Active”. The Activity [16] was “Non-Toxic” and the Activity [17] was “Non-Toxic”.
